{"source": "patent US20240050590A1", "about": "“METHODS AND COMPOSITIONS TO REGULATE CHOLESTEROL EFFLUX TO PREVENT, TREAT, OR CURE MACULAR DEGENERATION” (The Trustees of Columbia University in the City of New York, priority 2021, published 2024)", "format_in_all_cases": "cell-based, human", "key": {"[1]": {"tested_on": "CES1 expression in EFEMP1^WT iRPE cells", "experiment": "Western blot of CES1 expression in normal (EFEMP1^WT) iRPE cells after treatment with agonists and antagonists", "conditions": "EFEMP1^WT iRPE cells from healthy donor, 72 h treatment, vs untreated control; LY294002 10 μM, GW4064 5 μM, GW3965 3 μM", "method": "(§1) Immunoblot To verify the differentiation of iRPE, CRALBP (Ab15051, Abcam) and RPE65 (401.8B11.3D9, Novas Biologicals) antibodies were used to detect mature RPE markers including CRALBP and RPE65 in iRPE cell lysates via western blot. To determine EFEMP1 expression in iRPE, both cell lysates and culture supernatant were assayed using anti-EFEMP1 antibody (MA5-25740, Thermo Fisher Scientific). To detect CES1 expression in iRPE, anti-CES1 antibody (AF4920, R&D) was used. Anti-alpha tubulin (T5168, Sigma Aldrich), anti-beta actin (A5316, Sigma), or anti-GAPDH (5174, Cell Signaling) antibodies were used to detect house-keeping proteins. The cell lysates were collected using RIPA buffer (Thermo Fisher Scientific).\nTo understand the upstream regulators of CES1 expression, the iRPE cells from healthy donor were treated with Gefitnib ([…], Sigma Aldrich), ML385 ([…], Sigma Aldrich), LY294002 (10 μM, Sigma Aldrich), GW4064 (5 μM, Sigma Aldrich), or GW3965 (3 μM, Sigma Aldrich) for 72 h. Anti-CES1 (AF4920, R&D) and anti-alpha tubulin (T5168, Sigma Aldrich) antibodies were used to detect CES1 and tubulin expression, respectively. The signal was detected using Immobilon Western Chemiluminescent HRP Substrate (Millipore). The blot was quantified using ImageJ for signal intensity."}, "[2]": {"tested_on": "iRPE cells", "experiment": "Cholesterol efflux assay in iRPE cells", "parameters": "dose or concentration left out as unconfirmed", "conditions": "EFEMP1^R345W iRPE", "method": "Cholesterol efflux assay Cholesterol Efflux Assay Kit (Abcam) was used to determine the cholesterol efflux rate in iRPE according to the manufacturer's protocol. In brief, fluorescence-labeled cholesterol was added to iRPE culture and incubated overnight. On the next day, the cells were washed twice with PBS, and the efflux of cholesterol was induced by 2% human serum. At designated time points, the culture supernatant and cell lysate were collected and measured by fluorescence at Ex/Em: 482/515 nm. The percentage of cholesterol efflux was calculated by fluorescence intensity of media fluorescence/(fluorescence intensity of cell lysate+media)×100.\n(§2) Lentiviral transduction For the knockdown of CES1 (MIM: 114835) in iRPE cells, the iRPE cells from healthy donor were cultured in 6-well plate. The lentiviral particles carrying CES1 shRNA (Locus ID 1066, Origene) were transduced into the iRPE cells at a MOI of 10 overnight. To establish fair comparison, the control iRPE cells were transduced with viral particles expressing scramble shRNA. The medium was refreshed the following day, and the cell were incubated for 7 days before analysis. To achieve overexpression of CES1 in iRPE cells, lentiviral particles (Origene) expressing CMV promoter-driven CES1 (GenBank: NM_001025194) were transduced following the same procedure."}, "[3]": {"tested_on": "CES1 expression in EFEMP1^R345W iRPE cells", "experiment": "Western blot of CES1 expression in EFEMP1^R345W iRPE cells treated with EGF", "conditions": "100 nM EGF, 72 h incubation, vs untreated cells", "method": "as §1"}, "[4]": {"tested_on": "iRPE cells", "experiment": "Nile red staining and quantification of intracellular lipid droplets in iRPE cells", "parameters": "amount of lipid droplets: dose or concentration left out as unconfirmed", "conditions": "EFEMP1^R345W iRPE, 2 weeks, vs untreated", "method": "Nile red staining To stain the intracellular neutral lipid, the iRPE cell cultures were treated with […] Nile red (Sigma Aldrich) for 30 min at 37° C. The cells were washed with PBS three times before microscopy observation.\nSince mature iRPE culture is usually 100% confluent, the Nile red-positively stained lipid droplets were quantified using ImageJ in a fixed area of 90,000 square micrometers for the number and size of Nile red-positive signals. Fluorescent particles smaller than 0.0001 square micrometers was excluded as noise.\nas §2"}}, "note": "“Also recorded” adds a separate entry of the source.", "data": [{"molecule": "O=C(O)Cc1cccc(OCCCN(Cc2cccc(C(F)(F)F)c2Cl)CC(c2ccccc2)c2ccccc2)c1", "note": "[GW3965]", "values": [{"measurement": "CES1 expression level (western blot)", "setting": "[1]", "result": "no change in CES1 expression"}]}, {"molecule": "CC(C)c1onc(-c2c(Cl)cccc2Cl)c1COc1ccc(/C=C/c2cccc(C(=O)O)c2)c(Cl)c1", "note": "[GW4064]", "values": [{"measurement": "CES1 expression level (western blot)", "setting": "[1]", "result": "no change in CES1 expression"}]}, {"molecule": "Cc1ccccc1C(=O)N1CCc2cc(-c3nc(NC(=O)Cc4ccc5c(c4)OCO5)sc3C)ccc21", "note": "[ML385]", "values": [{"measurement": "CES1 expression level (western blot)", "setting": "[1]", "result": "only LY294002 reduced CES1 expression"}]}, {"molecule": "COc1cc2ncnc(Nc3ccc(F)c(Cl)c3)c2cc1OCCCN1CCOCC1", "note": "[gefitinib]", "values": [{"measurement": "CES1 expression level (western blot)", "setting": "[1]", "result": "remarkably reduced"}]}, {"molecule": "epidermal growth factor [EGF]", "values": [{"measurement": "cholesterol efflux (in words)", "setting": "[2]; EGF for two weeks, vs untreated", "result": "improve cholesterol efflux"}, {"measurement": "increase in cholesterol efflux", "setting": "[2]; EGF, 2 weeks, vs untreated control", "result": 26, "unit": "%"}, {"measurement": "CES1 level (western blot)", "setting": "[3]", "result": "remarkably higher"}, {"measurement": "lipid droplet size", "setting": "[4]; 100 mM EGF", "result": "not obvious"}, {"measurement": "amount of lipid droplets", "setting": "[4]; EGF", "result": "significant decrease; also recorded: ameliorates intracellular lipid droplet accumulation"}]}]}
